# Experimental data published in US12606541B2, “PPARg modulators and methods of use” (Eisai R&D Management Co., Ltd., priority 2020, dated 2026).
# pIC50: −log10 of the molar value. Read-outs that look alike come from different tables or passages of the source.
# How the values were obtained:
# His6-TEV-PPARγ-(234-505) = biological target: T1, His6-TEV-PPARγ-(234-505) (Homo sapiens, UniProt P37231); experiment: TR-FRET Assay to Measure Co-R Peptide Recruitment to PPARγ; type: biochemical; details: Co-R peptide (SMRT-ID2) recruitment; top final concentration 20 μM; read-out: TR-FRET i-Ag; AC50
# T1 construct: The His6-TEV-PPARγ-(234-505) protein for assay was expressed and purified; TEV cleavage site (N); made in house
# T1 sequence (P37231 234-505): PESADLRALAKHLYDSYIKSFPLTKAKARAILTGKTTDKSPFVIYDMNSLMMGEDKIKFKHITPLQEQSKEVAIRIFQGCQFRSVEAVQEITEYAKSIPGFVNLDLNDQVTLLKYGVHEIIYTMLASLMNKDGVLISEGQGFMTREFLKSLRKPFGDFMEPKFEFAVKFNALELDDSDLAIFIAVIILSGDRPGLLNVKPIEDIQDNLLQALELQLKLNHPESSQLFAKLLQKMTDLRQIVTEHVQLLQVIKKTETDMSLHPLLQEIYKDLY
# How it was run: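 His-tagged PPARγ (or controls) was preincubated with compound for 20 minutes at room temperature, then 5 nM anti-His terbium antibody and 200 nM FITC-labeled SMRT-ID2 corepressor peptide (final) were added for a further hour. TR-FRET signal was normalized to percent response using 500 nM T0070907 and DMSO controls.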
# UM-UC-9 engineered cells = experiment: Cell proliferation / short-term viability assay, CellTiter-Glo 144 h; type: cell-based, human; details: read-out: CTGlo 144 h UMUC9.5, G150
# Protocol: Cell Seeding for Proliferation Assay
# UM-UC-9 engineered cells were cultured in Dulbecco's Modified Eagle Medium (DMEM) supplemented with 10% FBS, 25 mM glucose (high glucose), 4.0 mM L-glutamine, 2.0 mM GlutaMAX™, 1.0 mM pyruvate, 1.0% non-essential amino acids (NEAA) in a 95% humidified incubator at 37° C. with 5% CO2. Cell banks of UM-UC-9 engineered assay-ready cells (ARCs) were prepared from a very active growth stage. Vials of ARCs containing approximately 5×10^6 cells per vial were stored in liquid nitrogen vapor phase cryostorage until use.
# For making assay plates, ARCs were recovered from cryostorage, strained in a […] cell strainer, verified for cell viability >90% and counted using a cell counter (Cellometer Auto 1000, Nexelom). Each cell line was seeded into 384-well plates (50 μl/well) using DMEM medium at a density previously determined to be in log growth phase 7 days post-seeding (500 cells/well) using a bulk reagent dispenser (Multidrop™ Combi, Thermo Scientific) with a large-bore plastic-tip cassette pre-sanitized with 70% ethanol. One plate of cells was designated as the pretreatment time-zero (T0) control. Freshly seeded plates were allowed to sit lidded for 30 minutes within a biosafety cabinet for cells to settle distributed within the plate wells uniformly and then placed into an automated incubator (STX110, Liconic) at 37° C., 5% CO2, and 95% relative humidity.
# Preparation of Test Compound in Assay-Ready Plate
# Compounds were stored in a low-temperature sample archive as 10 mM dimethyl sulfoxide (DMSO) solutions at −20° C. under reduced humidity (−45° C. dew point) and protected from light. All samples in the automated archive are stored in 2D barcoded polypropylene tubes, tracked through a laboratory information management system (LIMS), and have been verified for identity and purity by NMR (Chemistry, H3 Biomedicine) and by LCMS (Analytical Chemistry, H3 Biomedicine) at the time of sample registration. Identity by mass matching and purity are again verified at the time of sample request fulfillment by redundant LCMS methods (acidic and basic separation protocols; Analytical Chemistry, H3 Biomedicine). Samples retrieved from low-temperature archive storage were solubilized by heated sonication (Bransonic® Ultrasonic Bath, Branson), transferred (Microlab Starlet, Hamilton) and serially-diluted (Viaflo Assist, Integra) by low-volume liquid handlers, and tracked in LIMS by automation log files to create a ID barcoded master dose-response plate (MDR) to serve as a standard source for all assay-ready plates (ARP) used within an experiment. ARPs prepared by acoustic transfer (ATS-100, EDC) of nL volumes from the MDR source were heat-sealed (PlateLoc, Agilent) and stored at −20° C. prior to use (<7 days from production). Tracking of liquid transfers via acoustic dispenser log files were used to update the LIMS system for all ARP plate maps.
# Measurement of Pretreatment Control Cells and Sample Anti-Proliferative Effects on Treated Cells
# On day 0 (pretreatment cells) or day 7 (treated cells), a cell proliferation assay was performed using an automated robotic assay platform (ACell, High-Res Biosolutions). Cell ARP's were removed from incubation, their plate lid discarded, and using a bulk reagent dispenser (Multidrop™ Combi, Thermo Scientific with a small-bore metal-tip cassette) 25 μL (1/2 volume) of Cell Titer-Glo® 2.0 Cell Viability Assay reagent (Promega) was added to wells of columns 1-23 (column 24 will be used as plate background or positive control). Cell ARP's were incubated at room temperature in an automation hotel position for a total of 1.0 minute while the next plate was delivered to the bulk reagent dispenser and then lid-free cell ARP's were returned to incubate at 37° C. for 2.5 hours. […]
Structure (SMILES),AC50 (His6-TEV-PPARγ-(234-505)) [nM],"pIC50 (UM-UC-9 engineered cells; Homo sapiens, UM-UC-9, 144 h)",pIC50 (UM-UC-9 engineered cells)
"COc1cc(-c2cc(C(=O)N3CCC(C(=O)NC4CCN(CC(F)(F)CO)C4)CC34CC4)n[nH]2)c(F)cn1 (mixture of isomers) [Example 459, (S)—N—((S)-1-(2,2-difluoro-3-hydroxypropyl)pyrrolidin-3-yl)-4-(5-(5-fluoro-2-methoxypyridin-4-yl)-1H-pyrazole-3-carbonyl)-4-azaspiro[2.5]octane-7-carboxamide and (S)—N—((R)-1-(2,2-difluoro-3-hydroxypropyl)pyrrolidin-3-yl)-4-(5-(5-fluoro-2-methoxypyridin-4-yl)-1H-pyrazole-3-carbonyl)-4-azaspiro[2.5]octane-7-carboxamide]",11.7,,6.99
"COc1cc(-c2cc(C(=O)N3CC[C@H](C(=O)NCc4ncc(F)cc4F)CC34CC4)n[nH]2)c(F)cn1 [Example 400, (S)—N-((3,5-difluoropyridin-2-yl)methyl)-4-(5-(5-fluoro-2-methoxypyridin-4-yl)-1H-pyrazole-3-carbonyl)-4-azaspiro[2.5]octane-7-carboxamide]",12.6,7.61,
"COc1cc(-c2cc(C(=O)N3CC[C@H](C(=O)Nc4cnn5ccc(C(C)O)nc45)CC34CC4)n[nH]2)c(F)cn1 (single isomer, unassigned) [Example 445-A]",0.6,,7.81
COc1cc(-c2cc(C(=O)N3CCC(C(=O)NC4CCCC(O)(C(F)(F)F)C4)CC34CC4)n[nH]2)c(F)cn1 (mixture of isomers) [Example 524],128,,6.47
"COc1cc(-c2cc(C(=O)N3CC[C@H](C(=O)NC4CCCn5cc(C(F)(F)F)nc54)CC34CC4)n[nH]2)c(F)cn1 (single isomer, unassigned) [Example 502-A]",110,,6.12
"COc1cc(-c2cc(C(=O)N3CCC(C(=O)NC(C)c4ncc(F)cc4Cl)CC34CC4)n[nH]2)c(F)cn1 (mixture of isomers) [Example 377, (S)—N—((R)-1-(3-chloro-5-fluoropyridin-2-yl)ethyl)-4-(5-(5-fluoro-2-methoxypyridin-4-yl)-1H-pyrazole-3-carbonyl)-4-azaspiro[2.5]octane-7-carboxamide and (S)—N—((S)-1-(3-chloro-5-fluoropyridin-2-yl)ethyl)-4-(5-(5-fluoro-2-methoxypyridin-4-yl)-1H-pyrazole-3-carbonyl)-4-azaspiro[2.5]octane-7-carboxamide]",20.2,,7.59
"CCc1cc(-c2cc(C(=O)N3CCC(C(=O)NCc4ncc(F)cc4Cl)CC34CC4)n[nH]2)c(F)cn1 (single isomer, unassigned) [Example 483-B]",0.9,,8.14
"COc1cc(-c2cc(C(=O)N3CC[C@H](C(=O)Nc4cnn5cc(C(C)O)ccc45)CC34CC4)n[nH]2)c(F)cn1 (single isomer, unassigned) [Example 495-A]",23.2,,6.54
"COc1cc(-c2cc(C(=O)N3CCC(C(=O)NC4CC(N5CCC(F)(F)C5)C4(C)C)CC34CC4)n[nH]2)c(F)cn1 (single isomer, unassigned) [Example 355-A]",10.4,,8.46
"COc1cc(-c2cc(C(=O)N3CC[C@H](C(=O)NCc4ncc(F)cc4OC)CC34CC4)n[nH]2)c(F)cn1 [Example 389, (S)-4-(5-(5-fluoro-2-methoxypyridin-4-yl)-1H-pyrazole-3-carbonyl)-N-((5-fluoro-3-methoxypyridin-2-yl)methyl)-4-azaspiro[2.5]octane-7-carboxamide]",10.3,7.89,
"COc1cc(-c2cc(C(=O)N3CC[C@H](C(=O)NC4CCN(CC5(O)COC5)C4)CC34CC4)n[nH]2)c(F)cn1 (single isomer, unassigned) [Example 454-B]",100,,5.73

# Second part, led by results:
AC50 (His6-TEV-PPARγ-(234-505)) [nM],Structure (SMILES),"pIC50 (UM-UC-9 engineered cells; Homo sapiens, UM-UC-9, 144 h)",pIC50 (UM-UC-9 engineered cells)
279,"COc1cc(-c2cc(C(=O)N3CCC(C(=O)NCc4ncoc4C(F)(F)F)CC3)n[nH]2)c(Cl)cn1 [Example 221, 1-(5-(5-chloro-2-methoxypyridin-4-yl)-1H-pyrazole-3-carbonyl)-N-((5-(trifluoromethyl)oxazol-4-yl)methyl)piperidine-4-carboxamide]",5.76,
182,"COc1cc(-c2cc(C(=O)N3CCC(C(=O)NC4c5ccccc5OCC4OC)CC3)n[nH]2)c(Cl)cn1 (mixture of isomers) [Example 252, 1-(5-(5-chloro-2-methoxypyridin-4-yl)-1H-pyrazole-3-carbonyl)-N-(3-methoxychroman-4-yl)piperidine-4-carboxamide]",5.94,
94.5,"COc1cc(-c2cc(C(=O)N3CCC(C(=O)NCc4cn5cc(Cl)ccc5n4)CC3)n[nH]2)c(Cl)cn1 [Example 219, 1-(5-(5-chloro-2-methoxypyridin-4-yl)-1H-pyrazole-3-carbonyl)-N-((6-chloroimidazo[1,2-a]pyridin-2-yl)methyl)piperidine-4-carboxamide]",5.79,
29.8,"COc1cc(-c2cc(C(=O)N3CCC(C(=O)NCc4cccc(Cl)c4)C(F)C3)n[nH]2)c(Cl)cn1 (mixture of isomers) [Example 177, 1-(5-(5-chloro-2-methoxypyridin-4-yl)-1H-pyrazole-3-carbonyl)-N-(3-chlorobenzyl)-3-fluoropiperidine-4-carboxamide]",7.16,
92.4,"COc1cc(-c2cc(C(=O)N3CC[C@H](C(=O)NCc4cccc(Cl)c4)CC34CCC4)n[nH]2)c(Cl)cn1 (single isomer, unassigned) [Example 256-A]",7.14,
130,"COc1cc(-c2cc(C(=O)N3CCC(C(=O)NCc4cccc5ccnn45)CC3)n[nH]2)c(Cl)cn1 [Example 137, 1-(5-(5-chloro-2-methoxypyridin-4-yl)-1H-pyrazole-3-carbonyl)-N-(pyrazolo[1,5-a]pyridin-7-ylmethyl)piperidine-4-carboxamide]",6.17,
679,"COc1cc(-c2cc(C(=O)N3CCC(C(=O)NCc4cc(C)n(C)n4)CC3)n[nH]2)c(Cl)cn1 [Example 141, 1-(5-(5-chloro-2-methoxypyridin-4-yl)-1H-pyrazole-3-carbonyl)-N-((1,5-dimethyl-1H-pyrazol-3-yl)methyl)piperidine-4-carboxamide]",5.58,
20.2,"COc1cc(-c2cc(C(=O)N3CCC(C(=O)NCc4ccc5[nH]nc(C)c5c4)CC3)n[nH]2)c(F)cn1 [Example 204, 1-[5-(5-fluoro-2-methoxypyridin-4-yl)-1H-pyrazole-3-carbonyl]-N-[(3-methyl-1H-indazol-5-yl)methyl]piperidine-4-carboxamide]",7.08,
56.2,"COc1cc(-c2cc(C(=O)N3CCC(C(=O)NCc4c[nH]c5ccccc45)CC3)n[nH]2)c(Cl)cn1 [Example 181, N-((1H-indol-3-yl)methyl)-1-(5-(5-chloro-2-methoxypyridin-4-yl)-1H-pyrazole-3-carbonyl)piperidine-4-carboxamide]",7.07,
